Values of other authors in patent publication US20200113872A1, “Ifetroban Treatment for Systemic Sclerosis” (Cumberland Pharmaceuticals Inc., priority 2016, published 2020).

System: pulmonary artery banded mice

Structure (SMILES): CCCCCNC(=O)c1coc([C@H]2[C@@H](Cc3ccccc3CCC(=O)O)[C@@H]3CC[C@H]2O3)n1 [ifetroban, [1S-(1α,2α,3α,4α)]-2-[[3-[4-[(Pentylamino)carbonyl]-2-oxazolyl]-7-oxabicyclo[2.2.1]hept-2-yl]methyl]-benzenepropanoic acid]
- right ventricular expression of anti-fibrotic and muscularization genes: augmented
- ratio of the early (E) to late (A) ventricular filling velocities (E/A ratio) (one indicator of cardiac efficiency): increased
- expression of genes associated with inflammation (right ventricle): decreased
- cardiomyocyte hypertrophy (treatment with ifetroban): reduced
- right ventricular fibrosis (treatment with ifetroban): reduced
